# Laboratory results: ChEMBL document CHEMBL1201862, “PubChem BioAssay data set” (2004)
#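 Test compounds were applied to cells in 96-well plates for 48 hours at 5 doses. GI50: concentration for 50% inhibition of growth.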 Calls of active or inactive are those of the source. Cut-off read from the data, not from the text of the source: active = GI50 up to about 1.1 µM and inactive = higher.
# Columns and labels:
# Experiment in all cases: NCI anticancer screen, dose series, 48 h
# [1] = test system: 786-0
# [2] = test system: A498
# [3] = test system: ACHN
# [4] = test system: CAKI-1
# [5] = test system: CCRF-CEM
# [6] = test system: COLO 205
# [7] = test system: DU-145
# [8] = test system: EKVX
# [9] = test system: HCC 2998
# [10] = test system: HCT-116
# [11] = test system: HCT-15
# [12] = test system: HL-60
# [13] = test system: HOP-62
# [14] = test system: HOP-92
# [15] = test system: HT-29
# [16] = test system: Hs-578T
# [17] = test system: IGROV-1
# [18] = test system: K562
# [19] = test system: KM12
# [20] = test system: LOX IMVI
# [21] = test system: M14
# [22] = test system: MCF7
# [23] = test system: MDA-MB-435
# [24] = test system: MDA-N
# [25] = test system: MOLT-4
# [26] = test system: NCI-H226
# [27] = test system: NCI-H23
# [28] = test system: NCI-H460
# [29] = test system: NCI-H522
# [30] = test system: NCI/ADR-RES
# [31] = test system: OVCAR-3
# [32] = test system: OVCAR-4
# [33] = test system: OVCAR-5
# [34] = test system: OVCAR-8
# [35] = test system: RPMI-8226
# [36] = test system: RXF 393
# [37] = test system: SF-268
# [38] = test system: SF-295
# [39] = test system: SF-539
# [40] = test system: SK-MEL-5
# [41] = test system: SK-OV-3
# [42] = test system: SN12C
# [43] = test system: SNB-75
# [44] = test system: SW-620
# [45] = test system: T47D
# [46] = test system: TK-10
# [47] = test system: UACC-257
# [48] = test system: UACC-62
# [49] = test system: UO-31
# [50] = test system: A549
# [51] = test system: MDA-MB-231
# [52] = test system: Malme-3M
# [53] = test system: PC-3
# [54] = test system: SK-MEL-28
# [55] = test system: SK-MEL-2
# [56] = test system: SNB-19
# [57] = test system: SR
# [58] = test system: U-251
smiles,measurement,setting,value
O=C1C2CCCC2N1Cc1ccccc1 (stereo not given),GI50,[1],> 100 µM (inactive)
same,GI50,[2],> 100 µM (inactive)
same,GI50,[3],> 100 µM (inactive)
same,GI50,[4],> 100 µM (inactive)
same,GI50,[5],> 100 µM (inactive)
same,GI50,[6],> 100 µM (inactive)
same,GI50,[7],> 100 µM (inactive)
same,GI50,[8],> 100 µM (inactive)
same,GI50,[9],> 100 µM (inactive)
same,GI50,[10],> 100 µM (inactive)
same,GI50,[11],> 100 µM
same,GI50,[12],> 100 µM (inactive)
same,GI50,[13],> 100 µM (inactive)
same,GI50,[14],> 100 µM (inactive)
same,GI50,[15],> 100 µM (inactive)
same,GI50,[16],> 100 µM (inactive)
same,GI50,[17],> 100 µM (inactive)
same,GI50,[18],> 100 µM (inactive)
same,GI50,[19],> 100 µM (inactive)
same,GI50,[20],> 100 µM (inactive)
same,GI50,[21],13.6 µM (inactive)
same,GI50,[22],> 100 µM (inactive)
same,GI50,[23],> 100 µM (inactive)
same,GI50,[24],> 100 µM (inactive)
same,GI50,[25],> 100 µM (inactive)
same,GI50,[26],> 100 µM (inactive)
same,GI50,[27],> 100 µM (inactive)
same,GI50,[28],> 100 µM (inactive)
same,GI50,[29],> 100 µM (inactive)
same,GI50,[30],> 100 µM (inactive)
same,GI50,[31],> 100 µM (inactive)
same,GI50,[32],23.3 µM (inactive)
same,GI50,[33],> 100 µM (inactive)
same,GI50,[34],> 100 µM (inactive)
same,GI50,[35],> 100 µM (inactive)
same,GI50,[36],> 100 µM (inactive)
same,GI50,[37],> 100 µM (inactive)
same,GI50,[38],> 100 µM (inactive)
same,GI50,[39],> 100 µM (inactive)
same,GI50,[40],> 100 µM (inactive)
same,GI50,[41],> 100 µM (inactive)
same,GI50,[42],> 100 µM (inactive)
same,GI50,[43],49.5 µM (inactive)
same,GI50,[44],> 100 µM (inactive)
same,GI50,[45],> 100 µM (inactive)
same,GI50,[46],> 100 µM (inactive)
same,GI50,[47],> 100 µM (inactive)
same,GI50,[48],> 100 µM (inactive)
same,GI50,[49],15.1 µM (inactive)
CCOC(=O)/C(C(=S)NCc1ccccc1)=C(/N)N1CCCC1,GI50,[1],> 100 µM (inactive)
same,GI50,[2],> 100 µM (inactive)
same,GI50,[50],> 100 µM (inactive)
same,GI50,[3],> 100 µM (inactive)
same,GI50,[4],> 100 µM (inactive)
same,GI50,[5],> 100 µM (inactive)
same,GI50,[6],> 100 µM (inactive)
same,GI50,[7],> 100 µM (inactive)
same,GI50,[8],> 100 µM (inactive)
same,GI50,[9],> 100 µM (inactive)
same,GI50,[10],> 100 µM (inactive)
same,GI50,[11],> 100 µM
same,GI50,[12],> 100 µM (inactive)
same,GI50,[13],> 100 µM (inactive)
same,GI50,[14],> 100 µM (inactive)
same,GI50,[15],> 100 µM (inactive)
same,GI50,[16],> 100 µM (inactive)
same,GI50,[17],> 100 µM (inactive)
same,GI50,[18],> 100 µM (inactive)
same,GI50,[19],> 100 µM (inactive)
same,GI50,[20],> 100 µM (inactive)
same,GI50,[21],> 100 µM (inactive)
same,GI50,[22],> 100 µM (inactive)
same,GI50,[51],> 100 µM (inactive)
same,GI50,[23],> 100 µM (inactive)
same,GI50,[24],> 100 µM (inactive)
same,GI50,[25],> 100 µM (inactive)
same,GI50,[52],> 100 µM (inactive)
same,GI50,[26],> 100 µM (inactive)
same,GI50,[27],> 100 µM (inactive)
same,GI50,[28],> 100 µM (inactive)
same,GI50,[29],> 100 µM (inactive)
same,GI50,[30],> 100 µM (inactive)
same,GI50,[31],> 100 µM (inactive)
same,GI50,[32],> 100 µM (inactive)
same,GI50,[33],> 100 µM (inactive)
same,GI50,[34],> 100 µM (inactive)
same,GI50,[53],> 100 µM (inactive)
same,GI50,[35],> 100 µM (inactive)
same,GI50,[36],> 100 µM (inactive)
same,GI50,[37],> 100 µM (inactive)
same,GI50,[38],> 100 µM (inactive)
same,GI50,[39],> 100 µM (inactive)
same,GI50,[54],> 100 µM (inactive)
same,GI50,[55],> 100 µM (inactive)
same,GI50,[40],> 100 µM (inactive)
same,GI50,[42],> 100 µM (inactive)
same,GI50,[56],> 100 µM (inactive)
same,GI50,[57],> 100 µM (inactive)
same,GI50,[44],> 100 µM (inactive)
same,GI50,[45],> 100 µM (inactive)
same,GI50,[46],> 100 µM (inactive)
same,GI50,[58],> 100 µM (inactive)
same,GI50,[47],> 100 µM (inactive)
same,GI50,[48],> 100 µM (inactive)
same,GI50,[49],56.9 µM (inactive)
